The text below walks through data of ChEMBL document CHEMBL1130633, “Beta-analogs of PLG (L-prolyl-L-leucyl-glycinamide): ex-chiral pool syntheses and dopamine D2 receptor modulating effects” (Bioorg Med Chem Lett, 1998).

Where a SMILES comes first, the peptide text is derived from it.

Chain of D(2) dopamine receptor (Bos taurus) (P20288 whole entry): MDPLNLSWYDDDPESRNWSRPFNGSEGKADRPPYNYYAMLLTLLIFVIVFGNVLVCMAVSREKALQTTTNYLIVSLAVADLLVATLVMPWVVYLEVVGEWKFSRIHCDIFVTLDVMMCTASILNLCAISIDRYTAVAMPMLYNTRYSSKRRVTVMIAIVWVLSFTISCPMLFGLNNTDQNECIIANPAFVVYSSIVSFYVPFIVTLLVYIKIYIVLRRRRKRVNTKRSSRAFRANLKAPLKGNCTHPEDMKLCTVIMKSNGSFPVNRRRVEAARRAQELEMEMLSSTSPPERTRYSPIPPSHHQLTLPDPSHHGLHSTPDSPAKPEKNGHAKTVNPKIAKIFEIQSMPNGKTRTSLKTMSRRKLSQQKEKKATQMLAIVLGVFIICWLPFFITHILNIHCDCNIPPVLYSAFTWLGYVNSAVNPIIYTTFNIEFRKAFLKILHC

This assay has as its target D(2) dopamine receptor (Bos taurus) (UniProt P20288). In words: Compound was evaluated for its ability to enhance the binding of the dopamine receptor agonist [3H]pramipexole to Dopamine receptor D2 at a concentration of 10E-9 M.
`CC(C)C[C@H](NC(=O)[C@@H]1CNC[C@@H]1Cc1ccccc1)C(=O)NCC(N)=O`: the Binding turned out to be 104%.

Turning to `CC(C)C[C@H](NC(=O)[C@@H]1CCNC1)C(=O)NCC(N)=O`, the Binding is 104%. On to `CC(C)C[C@H](NC(=O)[C@@H]1CCCN1)C(=O)NCC(N)=O` (H-Pro-Leu-Gly-NH2), for which the Binding is 109%. `CC(C)C[C@H](NC(=O)[C@@H]1CNC[C@H]1Cc1ccccc1)C(=O)NCC(N)=O`: the Binding was 108%.

Take `CC(C)C[C@H](NC(=O)[C@H]1CNC[C@@H]1Cc1ccccc1)C(=O)NCC(N)=O`: the Binding was found to be 109%. In the case of `CC(C)C[C@H](NC(=O)[C@H]1CCNC1)C(=O)NCC(N)=O`, the Binding is 107%. Take `CC(C)C[C@H](NC(=O)[C@H]1CNC[C@H]1Cc1ccccc1)C(=O)NCC(N)=O`: the Binding turned out to be 99.6%.
